System: MCF7 (breast cancer) cells
Test: MTT cytotoxicity assay in MCF7 breast cancer cells
Format: cell-based
Conditions: 65 hours incubation, read-out: IC50, viability of MCF7 cells from the MTT assay
Protocol: The cyctoxicity of compounds was determined in MCF 7 (breast cancer) cells.
MCF7 cells were grown in RPMI 1640 media with 10 nM estrogen and 1 mM insulin. Cells were tyripsinized and resuspended at a density of 2.2×10^4 cells per mL. 500 μL of this suspension was added to each well in a 24 well plate. The plates were incubated at 37° C. and 5% CO2 atmosphere overnight. The media was changed, and plates were dosed in triplicate with compound dissolved in DMSO. Cells were dosed not to exceed 0.5% DMSO in solution. Cells were dosed to a final concentration of 100, 50, 25, 12.5, and 6.25 μM of compound. 5-Flurouracil was used as a positive control and dosed in the same manner. Plates were incubated for 65 hours prior to the addition of MTT solution. 500 μL of a 193 μg/mL MTT and media solution was added to each well. Plates were incubated for 3 hours. The MTT solution was removed and 500 μL of DMSO was added to each well. Cells were imaged using GS 800 Bio Rad scanner and Quality One Software. IC50 curves were determined by plotting viability verses compound concentration. Kaleidagraph software was used to calculate the R value for each logarithmic curve fitting.

Structure (SMILES) | IC50 [µM]
CC(C)(C)C(OCc1c[nH]c(=O)[nH]c1=O)c1ccccc1 (stereo not drawn) [KB-1-23, 5-[1-phenyl-2,2-(dimethyl)propoxymethyl]uracil] | 59
COc1ccc(C(OCc2cn([C@H]3C[C@H](O)[C@@H](CO)O3)c(=O)[nH]c2=O)C(C)(C)C)cc1 (stereo partly drawn) [KB-1-55, 5-[1-(4-methoxyphenyl)-2,2-(dimethyl)propoxymethyl]-2′-deoxyuridine] | 183
O=c1[nH]c(=O)n([C@H]2C[C@H](O)[C@@H](CO)O2)cc1COC(c1ccccc1)c1ccccc1[N+](=O)[O-] (stereo partly drawn) [KB-1-85, 5-[{(2-nitrophenyl)phenyl}methoxymethyl]-2′-deoxyundine] | 50
CC(C)(C)CC(OCc1cn([C@H]2C[C@H](O)[C@@H](CO)O2)c(=O)[nH]c1=O)c1ccccc1[N+](=O)[O-] (stereo partly drawn) [KB-1-91, 5-[1-(2-nitrophenyl)-3,3-(dimethyl)butoxymethyl]-2′-deoxyuridine] | 62
Cc1ccccc1C(OCc1cn([C@H]2C[C@H](O)[C@@H](CO)O2)c(=O)[nH]c1=O)C(C)(C)C (stereo partly drawn) [KB-1-100, 5-[1-(2-methyl)phenyl-2,2-(dimethyl)propoxymethyl]-2′-deoxyuridine] | 121
CC(C)(C)C(OCc1cn([C@H]2C[C@H](O)[C@@H](CO)O2)c(=O)[nH]c1=O)c1ccccc1CBr (stereo partly drawn) [KB-1-135, 5-[1-(2-bromomethyl)phenyl-2,2-(dimethyl)propoxymethyl]-2′-deoxyuridine] | 72
CC(C)(C)C(OCc1cn([C@H]2C[C@H](O)[C@@H](CO)O2)c(=O)[nH]c1=O)c1ccc(I)cc1[N+](=O)[O-] (stereo partly drawn) [MPB-1-33, 5-[1-(4-iodo-2-nitrophenyl)-2,2-(dimethyl)propoxymethyl]-2′-deoxyuridine] | 56 ± 6
COc1ccccc1C(OCc1cn([C@H]2C[C@H](O)[C@@H](CO)O2)c(=O)[nH]c1=O)C(C)(C)C (stereo partly drawn) [MPB-1-36, 5-[1-(2-methoxyphenyl)-2,2-(dimethyl)propoxymethyl]-2′-deoxyuridine] | 94
CC(C)(C)C(OCc1cn([C@H]2C[C@H](O)[C@@H](CO)O2)c(=O)[nH]c1=O)c1ccc(C#CCOc2ccc3ccc(=O)oc3c2)cc1[N+](=O)[O-] (stereo partly drawn) [MPB-1-41, 5-[1-(4-{3-(7-coumarin)oxy}proyn-1-yl-2-nitrophenyl)-2,2-(dimethyl)propoxymethyl]-2′-deoxyuridine] | 16 ± 3
CC(C)(C)C(OCc1cn([C@H]2C[C@H](O)[C@@H](CO)O2)c(=O)[nH]c1=O)c1ccccc1Cl (stereo partly drawn) [MPB-1-49, 5-[1-(2-chlorophenyl)-2,2-(dimethyl)propoxymethyl]-2′-deoxyundine] | 80
CC(C)(C)C(OCc1cn([C@H]2C[C@H](O)[C@@H](CO)O2)c(=O)[nH]c1=O)c1c([N+](=O)[O-])cccc1[N+](=O)[O-] (stereo partly drawn) [MPB-1-55, 5-[1-(2,6-dinitrophenyl)-2,2-(dimethyl)propoxymethyl]-2′-deoxyuridine] | 96
CC(C)(C)C(OCc1cn([C@H]2C[C@H](O)[C@@H](CO)O2)c(=O)[nH]c1=O)c1c(Cl)cccc1Cl (stereo partly drawn) [MPB-1-57, 5-[1-(2,6-dichlorophenyl)-2,2-(dimethyl)propoxymethyl]-2′-deoxyuridine] | 60
O=c1[nH]c(=O)n([C@H]2C[C@H](O)[C@@H](CO)O2)cc1COC(c1ccccc1)C1CCCCC1 (stereo partly drawn) [PRW-1-13, 5-[1-(phenyl)-1-(cyclohexyl)methoxymethyl]-2′-deoxyundine] | 93
O=c1[nH]c(=O)n([C@H]2C[C@H](O)[C@@H](CO)O2)cc1COC(c1ccccc1[N+](=O)[O-])C1CCCCC1 (stereo partly drawn) [PRW-1-18, 5-[1-(2-nitro)phenyl-1-(cyclohexyl)methoxymethyl]-2′-deoxyuridine] | 63
CC(C)(C)CC(OCc1c[nH]c(=O)[nH]c1=O)c1ccccc1 (stereo not drawn) [SL-1-7, 5-[1-phenyl-3,3-(dimethyl)butoxymethyl]uracil] | 37
COc1cccc(C(OCc2cn([C@H]3C[C@H](O)[C@@H](CO)O3)c(=O)[nH]c2=O)C(C)(C)C)c1 (stereo partly drawn) [SS-1-11, 5-[1-(3-methoxyphenyl)-2,2-(dimethyl)propoxymethyl]-2′-deoxyundine] | 66
O=c1[nH]c(=O)n([C@H]2C[C@H](O)[C@@H](CO)O2)cc1COC(c1ccccc1)c1c([N+](=O)[O-])cccc1[N+](=O)[O-] (stereo partly drawn) [TZ-1-13F3, 5-[{(2,6-dinitrophenyl)phenyl}methoxymethyl]-2′-deoxyuridine] | 44
CC(OCc1cn([C@H]2C[C@H](O)[C@@H](CO)O2)c(=O)[nH]c1=O)c1ccccc1[N+](=O)[O-] (stereo partly drawn) [VAL-1-26, 5-[1-(2-nitrophenyl)ethoxymethyl]-2′-deoxyuridine] | ~150
CC(C)(C)C(OCc1cn([C@H]2C[C@H](O)[C@@H](CO)O2)c(=O)[nH]c1=O)c1ccccc1C#N (stereo partly drawn) [VAL-1-28, 5-[1-(2-cyanophenyl)-2,2-(dimethyl)propoxymethyl]-2′-deoxyuridine] | 106
COCC#Cc1ccc(C(OCc2cn([C@H]3C[C@H](O)[C@@H](CO)O3)c(=O)[nH]c2=O)C(C)(C)C)c([N+](=O)[O-])c1 (stereo partly drawn) [VAL-1-48, 5-[1-(4-{3-methoxy}proyn-1yl-2-nitrophenyl)-2,2-(dimethyl)-1-propoxymethyl]-2′-deoxyuridine] | 74 ± 7
CC(C)(C)C(OCc1cn([C@H]2C[C@H](O)[C@@H](CO)O2)c(=O)[nH]c1=O)c1ccc(C#C[Si](C)(C)C)cc1[N+](=O)[O-] (stereo partly drawn) [VAL-1-49, 5-[1-(4-{trimethylsilyl}acetylenyl-2-nitrophenyl)-2,2-(dimethyl)-1-propoxymethyl]-2′-deoxyuridine] | 29 ± 3
C#Cc1ccc(C(OCc2cn([C@H]3C[C@H](O)[C@@H](CO)O3)c(=O)[nH]c2=O)C(C)(C)C)c([N+](=O)[O-])c1 (stereo partly drawn) [VAL-1-50, 5-[1-(4-acetylenyl-2-nitrophenyl)-2,2-(dimethyl)propoxymethyl]-2′-deoxyuridine] | 89 ± 14

Same assay, conditions: Homo sapiens, MCF7, 65 h, 65 hours incubation, read-out: IC50, viability of MCF7 cells from the MTT assay

Structure (SMILES) | IC50 [µM]
CC(C)C(OCc1c[nH]c(=O)[nH]c1=O)c1ccccc1 (stereo not drawn) [KB-1-1, 5-[1-phenyl-2-(methyl)propoxymethyl]uracil] | > 200
O=c1[nH]c(=O)n([C@H]2C[C@H](O)[C@@H](CO)O2)cc1COC(c1ccccc1)c1ccccc1 [KB-1-10, 5-[(diphenyl)methoxymethyl]-2′-deoxyuridine] | 160
CC(C)COC(c1ccccc1)c1cn([C@H]2C[C@H](O)[C@@H](CO)O2)c(=O)[nH]c1=O (stereo partly drawn) [MPB-1-25, 5-[1-(phenyl)-2-(methyl)-1-propoxymethyl]-2′-deoxyuridine] | > 150
CC(OCc1cn([C@H]2C[C@H](O)[C@@H](CO)O2)c(=O)[nH]c1=O)c1ccccc1 (stereo partly drawn) [VAL-1-10, 5-[1-(phenyl)ethoxymethyl]-2′-deoxyuridine] | > 200
CC(OCc1cn([C@H]2C[C@H](O)[C@@H](CO)O2)c(=O)[nH]c1=O)c1ccccc1[N+](=O)[O-] (stereo partly drawn) [VAL-1-25, 5-[1-(2-nitrophenyl)ethoxymethyl]-2′-deoxyuridine] | ~170

Source: patent US20160101188A1, “NOVEL NANOCARRIER DELIVERED CANCER CHEMOTHERAPEUTIC AGENTS” (UNIVERSITY OF CINCINNATI, priority 2013, published 2016)
